What all share (type): physicochemical
Data set [1] can be described thus: Thermodynamic stability: crystals suspended for 30 days in solvent/water mixtures of desired water activity. An excerpt:
(§1) The thermodynamic stability was checked by suspending crystals of Form B for 30 days in appropriate solvent/water mixtures, thus creating environments with the desired water activity. As water activity is equivalent to relative humidity (e.g. 60% RH=water activity 0.6), and due to the more rapid exchange of molecules between the crystals and the saturated solution in the suspension, this approach gives the possibility to observe the equilibrium condition of the solid form. […] Kinetic stability was checked by exposing solid, powdery samples to air at selected temperature and relative humidity.
(§2) The thermodynamic stability was checked by suspending crystals of Form F for 30 days in appropriate solvent/water mixtures, as explained above for Form B crystals.

A short description of data set [2]: Dynamic Vapor Sorption (DVS). Conditions: 25° C. How it is done: Two different types of DVS equipment were used, where the sample weight uptake is plotted against the relative humidity over the sample: • SMS DVS controlled by the software DVS Win. The sample temperature is maintained at 25° C. The weight change of the sample as a function of % RH (relative humidity expressed as a percentage) was monitored by the microbalance. The sample was placed on a glass pan attached to the microbalance. A moisture cycle was performed from 30 to 90 to 0 to 30% RH at 25° C. (dm/dt 0.002 with a scanning step 10%). • Projekt Messtechnik Sorptions Prüfsystem SPS 11-100n or Surface Measurement Systems DVS-1; the sample was placed on an aluminium (SPS 11) or platinum (DVS-1) holder on top of the microbalance and conditioned at 25% RH and 25° C. A moisture cycle was performed from 25 to 95 to 0 to 25% RH at 5% RH per hour at 25° C.

Data set [3] in a line: Kinetic stability: solid, powdery samples exposed to air at selected temperature and relative humidity. Conditions: 7 weeks, solid powder exposed to air.
Text: as §1, §2

Molecules are shown by their SMILES.

`[O-][n+]1cccc(-c2nc3c(Cl)cccc3cc2[C@@H](Nc2ncnc3cccnc23)C(F)(F)F)c1` [Form F, N-{(R)-1-[8-Chloro-2-(1-oxypyridin-3-yl)quinolin-3-yl]-2,2,2-trifluoroethyl}pyrido[3,2-d]pyrimidin-4-ylamine, Crystal Form F]: the “thermodynamic stability under ICH conditions” value in data set [1] (25° C./60% RH) and in data set [1] (40° C./75% RH) was “not to be thermodynamically stable” each time. The same compound showed a limited water uptake in data set [2] (observed from 70% RH onwards) of 1%. Also, the “hygroscopic behaviour (DVS)” value in data set [2] (variable relative humidity) was “non-hygroscopic”.
Consider `[O-][n+]1cccc(-c2nc3c(Cl)cccc3cc2[C@@H](Nc2ncnc3cccnc23)C(F)(F)F)c1` [Form B, N-{(R)-1-[8-Chloro-2-(1-oxypyridin-3-yl)quinolin-3-yl]-2,2,2-trifluoroethyl}pyrido[3,2-d]pyrimidin-4-ylamine, Crystal Form B (Hydrate)], for which the “thermodynamic stability under ICH conditions” value in data set [1] (25° C./60% RH, (Hydrate)) was “thermodynamically stable”; in data set [1] (40° C./75% RH, (Hydrate)), “thermodynamically stable”. Besides, the kinetic stability entry in data set [3] (25° C./60% RH) and in data set [3] (40° C./75% RH) was “kinetically stable” throughout. For the same compound, the continuous water uptake in data set [2] (from 25% RH to 95% RH) is on record as around 2.4 % weight. In addition, in data set [2] (second part of the cycle (95% RH to 0% RH), at low RH), the stepwise mass loss was found to be 3.3 % weight. Further, in data set [2] (third part of the cycle (0% RH to 25% RH)), the stepwise water uptake came to 3.6%.
